The source of these data is publication PMC8157578 (Antioxidants, 2021).

Data set [1] has as its system HeLa cells. The data set is described as follows: Immunofluorescence analysis of intracellular γ-H2AX generation in iron-overloaded HeLa cells (with H2O2). Type of data set: cell-based, human. As to conditions: Fe(II)-H2O2 alone 2.86±0.64. As for the experimental part:
The immortalized human cervical carcinoma HeLa cell line used in this study was obtained from the Cell Resource Center, Peking Union Medical College. The cell line was checked to be free of mycoplasma contamination by PCR and culture. Its species origin was confirmed with PCR. The identity of the cell line was authenticated with STR profiling (FBI, CODIS). HeLa cells were cultured in a DMEM medium (4 mM L-glutamine, 4500 mg/L glucose, and no sodium pyruvate) with 10% fetal bovine serum (FBS) and 1% penicillin–streptomycin at 37 °C under a 5% CO2 atmosphere.
HeLa cells (10^4/well) were loaded by incubation with 20 μM Fe(II) for 2 h at 37 °C. […] For a detailed experimental procedure, please refer to the Supplementary Materials and our previous report. The experiment was repeated three times. The observation of the fluorescence of γ-H2AX in HeLa cells was conducted with a confocal laser scanning microscope (CLSM) (Leica TCS SP). Thirty cells in each group were randomly selected in different microscopic fields for quantitative detection. In detail, each well was equally divided into nine fields and numbered sequentially from the top right corner. Four fields were randomly selected according to a random number table. Thirty cells were then randomly selected from these four fields. All images were analyzed blind regarding exposure parameters, which were coded by one person and read by another who was blinded to the code. The fluorescence intensity of the γ-H2AX signal on selected images was automatically analyzed using the Image-J software. The Statistical Product and Service Solutions (SPSS 21) program was employed to analyze the data through ANOVA. Significant difference from iron-overloaded group are marked with * p < 0.05, ** p < 0.01, and *** p < 0.001.
(§1) 2.1 Immunofluorescence analysis of intracellular γ-H2AX generation in Hela cells
(§2) Fixed cells were permeabilized with 0.25% Triton-X100 in PBS for 10 min and blocked in 10%
(§3) normal goat serum, 0.1% tween 20 in PBS for 1 hour. The cells were incubated with primary
(§4) monoclonal antibody, γ-H2AX (Ser139, 20E3, Rabbit, mAb #9718) (1:600) overnight at 4°C, and then
(§5) stained secondary antibodies, anti-rabbit Alexa-488 and anti-mouse (Cell Signaling Technology) for
(§6) 1 hour. After Hoechst 33342 (10 μg/mL) staining for 2 min, dishes were mounted in ProLong™ Gold
(§7) Antifade Mountant (Invitrogen™) and stored at 4°C in the dark before confocal laser-scanning by
(§8) Broadband Confocal Leica TCS SP5. The CLSM images were obtained with the following excitation
(§9) respectively. Cells were washed 3 times with PBS (200 μL/well) at intervals. […]

For data set [2], the system named is HeLa cells. The data set is described as follows: Labile iron pool (LIP) determination with calcein-AM in iron-overloaded HeLa cells, flow cytometry. Conditions: 15 min. The format is cell-based, human. As for the experimental part: HeLa cells (10^6/mL) were loaded by incubation with 20 μM Fe(II) for 2 h at 37 °C. Subsequently, cells were collected by centrifugation (1000 rpm for 5 min) and incubated with 0.5 μM calcein-AM for 15 min at 37 °C in a D’hanks buffer of pH 7.4. Cells were then washed twice by D’hanks buffer (pH 7.4) and incubated with or without CAPE and its analogues. The fluorescence was monitored by both flow cytometry (BD FACS Caliber) and a CLSM (Leica TCS SP). The experiment was repeated three times.
Figure 3 Effect of CAPE and its analogues on the LIP level in iron-overloaded cells, as measured by flow cytometry (A–D). HeLa cells were pretreated with 20 μM Fe(II) for 2 h and then incubated with calcein-AM. After 15 min, cells were washed and incubated with or without CAPE and its analogues for 15 min. The fluorescence intensity of cells was measured by flow cytometry. Significant differences from the iron-overloaded group are marked with * p < 0.05, ** p < 0.01, and *** p < 0.001. The experiment was repeated three times.

Data set [3] concerns plasmid pBR322 DNA. The data set is described as follows: Plasmid DNA strand breakage induced by Fe(III)–citrate/ascorbate/H2O2, agarose gel electrophoresis. The format is biochemical. Conditions: 20 μM Fe(III)–citrate, 10 μM ascorbate, 200 μM H2O2. The procedure:
(§10) Plasmid DNA agarose gel electrophoresis was employed to investigate protective effect of CAPE and its analogues against DNA strand breakage induced by an iron-mediated system. For experimental procedure details, please refer to the Supplementary Materials.
Figure 4 Protective effect of CAPE and its analogues against Fe(III)–citrate–ascorbate–H2O2-induced DNA damage. […] The reaction mixture contained 20 μM Fe(III)–citrate, 10 μM ascorbate, and 200 μM H2O2, as well as the indicated concentrations of CAPE and its analogues. The experiments were repeated three times, and only typical images are presented. […]
The experiments were conducted via incubation of plasmid pBR322 DNA (5 μg/mL) at 37 °C for
30 min in Chelex-treated HEPES buffer (100 mM, pH 7.4) with the iron-containing systems, in the
absence or presence of the indicated concentrations of CAPE and its analogues. […]

Data set [4] has as its system plasmid pBR322 DNA. The data set is described as follows: Plasmid DNA strand breakage induced by Fe(II)–H2O2, agarose gel electrophoresis. The format is biochemical. Conditions: ratio-dependent. As for the experimental part:
as §10, §1, §2, §3, §4, §5, §6, §7, §8, §9
ESR spectra were recorded at room temperature in a Bruker ESR 300 spectrometer. […]
The consumption of O2 was measured by Orion 3 dissolved oxygen meter (Thermo Scientific, […]
Corona Needle current was 3000 nA. The size of data points was recorded in 4 M format. […]

Data set [5] can be described thus: ESR spin-trapping (DMPO) of •OH generated by Fe(III)–citrate–ascorbate–H2O2. The format is biochemical. Conditions: 100 μM Fe(III)–citrate, 100 μM ascorbate, 1 mM H2O2.
Experimental: The basic system used in this study consisted of Fe(III)/Fe(II), ascorbate, H2O2, and the spin trapping agent DMPO (100 mM) in 20 mM HEPES (pH 7.4) with or without CAPE and its analogues.
The reaction mixture contained 100 μM Fe(III)–citrate, 100 μM ascorbate, and 1 mM H2O2, as well as the indicated concentrations of CAPE and its analogues. The experiments were repeated three times, and only typical spectra are presented.
2.3 Electron spin resonance (ESR) spin-trapping studies
spectrometer parameters were as follows: scan range, 100 G; field set, 3470 G; time constant, 200 ms;
scan time, 100 s; modulation amplitude, 1.0 G; modulation frequency, 100 kHz; receiver gain,
The nature of data set [6]: Cyclic voltammetry of Fe(III) chelated by ligand. Type of data set: physicochemical. Conditions: 100 mM PB pH 7.4, SCE reference, 2 mV/s; Fe(III) alone approximately −0.65 V. The procedure:
CV was performed in 100 mM PB (pH 7.4) on a Princeton Applied Research (VersaSTAT3) potentiostat with a Pt wire as the counter electrode, a saturated calomel electrode (SCE) as the reference electrode, and a glassy carbon electrode (5 mm in diameter) as the working electrode. The scan rate was 2 mV/s.

Data set [7] is described as follows: 1-octanol/phosphate buffer partitioning, shake-flask method. The format is physicochemical. Conditions: 1-octanol / 100 mM phosphate buffer pH 7.4, shake-flask.
For data set [8], the system named is HeLa cells. Description: Auto-fluorescence of HeLa cells after incubation with compound (cell uptake). Type of data set: cell-based, human. Conditions: HeLa cells incubated two hours, auto-fluorescence Ex ~330 nm, Em ~450 nm.
Text: Subsequently, cells were washed and collected by centrifugation, the fluorescence of cells (105) was monitored by Thermo Scientific Varioskan Flash (Thermo Fisher scientific, USA) ***Significant difference from iron-overloaded group, p < 0.001.
For data set [9], the system named is HeLa cells. The data set is described as follows: Labile iron pool (LIP) determination with calcein-AM in iron-overloaded HeLa cells, flow cytometry. Type of data set: cell-based, human. Conditions: 50 μM compound alone, no iron.

For `O=C(/C=C/c1ccc(O)c(O)c1)OCCc1ccccc1` [CAPE, Caffeic acid phenethyl ester], the “Fluorescence intensity of γ-H2AX” value in the data set on HeLa cells [1] (Fe(II)-H2O2 + 2 μM compound) was 3.07±0.54 Fold of Control; in the data set with HeLa cells [1] (Fe(II)-H2O2 + 10 μM compound), 2.71±0.32 Fold of Control; in the data set on HeLa cells [1] (Fe(II)-H2O2 + 20 μM compound), 1.66±0.46 Fold of Control; in the data set on HeLa cells [1] (Fe(II)-H2O2 + 50 μM compound), 1.26±0.23 Fold of Control. Also, the “Fluorescence intensity of calcein-AM (LIP level)” value in the data set on HeLa cells [2] (20 μM Fe(II) + 2 μM compound, Fe(II) alone 0.64±0.04) was 0.65±0.00 Fold of Control; in the data set on HeLa cells [2] (20 μM Fe(II) + 20 μM compound, Fe(II) alone 0.64±0.04), 0.73±0.02 Fold of Control; in the data set with HeLa cells [2] (20 μM Fe(II) + 50 μM compound, Fe(II) alone 0.63-0.64), 0.89±0.04 Fold of Control; in the data set with HeLa cells [9] it was 0.97±0.03 Fold of Control. Also, the “Protective effect against Fe(III)–citrate–ascorbate–H2O2-induced DNA damage, in words” value in the data set with plasmid pBR322 DNA [3] is given as “significantly inhibited”. Besides, the “Concentration range with the stated inhibition of Fe(III)-citrate-Vc-H2O2 induced DNA damage” value in the data set on plasmid pBR322 DNA [3] (CAPE significantly, CA slightly) lay within 40 to 200 µM. In addition, the “Inhibition of Fe(II)–H2O2-induced DNA strand breaks, in words” value in the data set with plasmid pBR322 DNA [4] was “significantly inhibited”. For the same compound, the “Inhibitory effect against Fe(III)-citrate-Vc-H2O2 induced •OH generation, in words” value in data set [5] is listed as “completely inhibited”. Further, in data set [5] (CAPE completely, CA significantly), the “Concentration with the stated inhibition of Fe(III)-citrate-Vc-H2O2 induced •OH generation” value was 200 µM. Further, the “Reduction potential of Fe(III) chelated by compound” value in data set [6] is given as −1.00 V. Further, the LogKow in data set [7] is reported as 2.01 ± 0.02. In addition, the “Fluorescence inside the cells after incubation (crossing the cell membrane), in words” value in the data set on HeLa cells [8] is reported as “significantly increase”.
